{"source": "patent US20260035753A1", "about": "“METHODS OF DETERMINING BACTERIA AND MANUFACTURING A FIBROUS WEB AND TOOLS AND USES RELATED THERETO” (KEMIRA OYJ, priority 2020, published 2026)", "key": {"[1]": {"system": "Thermicanus", "assay": "Biocide trial on a paper machine using recycled fiber; Thermicanus quantified with specific qPCR", "protocol": "The best primer sequences for a qPCR assay specific for Thermicanus were 5′-[…]-3′ (SEQ ID NO: 2) and 5′-[…]-3′ (SEQ ID NO: 3). Allowing maximum 2 mismatches, these primers detect no 16S rRNA gene of other bacterial genera. The length of the PCR product is 236 bp for Thermicanus aegyptius, the only Thermicanus species described thus far. Specific amplification (one peak in qPCR melt curve analysis) was produced from Thermicanus genomic DNA at annealing temperatures 59-63° C. in qPCR master mix with 2.2 mM Mg^2+ (50 mM salt) and SYBR Green.\nBesides in silico verifications, the validity of the Thermicanus qPCR assay with the novel primers was verified with 16 board process DNA samples from RCF pulp and white water (FIG. 1). Samples were selected based on sequencing results to be taxonomically diverse, include wide range of Thermicanus, and include communities with close relatives of Thermicanus including Geobacillus (Bacillaceae). SYBR Green qPCR detection chemistry was used with hot-start qPCR mastermix on BioRad CFX96 cycler or thermal cycler, using annealing temperature of 61° C. for stringent hybridization. The Pearson correlation between the NGS and qPCR-derived Thermicanus abundance was 0.993, when total bacteria were quantified based on genomic DNA concentration (FIG. 1A), and 0.997, when total bacteria were quantified based on general bacterial qPCR (FIG. 1B). These very high correlations verify the specificity and validity of the novel Thermicanus qPCR primers for the quantification of Thermicanus in board process samples.\nA biocide trial on a paper machine using recycled fiber was ran with monochloramine (MCA). Samples from stock storage and cloudy white water were taken 7 months and 1 day before starting the trial and 3 weeks after starting the MCA trial. The amount of Thermicanus was quantified with Thermicanaceae-specific qPCR as described in Example 3. MCA trial decreased Thermicanus densities in stock storage and white water by ≥99%."}, "[2]": {"system": "Thermicanus", "assay": "Microbe control test in recycled fiber pulp (white water + recycled packaging board), 24 h contact time", "format": "cell-based", "conditions": "after 24 h at +50° C.; NGS sequencing and total bacterial qPCR; control 3.2*10^7; performic acid 14 mg/l, monochloramine 15 mg/l, mixture in total 15 mg/l, mixture in total 8 mg/l + zinc 7 mg/l", "protocol": "White water from a liner machine using recycled fiber was taken and dry, brown, recycled packaging board was homogenized with the water so that the final consistency of fibers was 2.0%. The pulp was divided into portions and biocides and enzyme inhibitor (zinc) were added into the bottles according to the Table 2. pH of the pulp at the beginning of the test was 7.75 and ORP +175 mV. After this the bottles were incubated at +50° C. for 24 hours. At 24 h pH and ORP were measured and samples for DNA analysis were collected. The amount of Thermicanus was quantified as described in examples 1 and 2.\nBiocide and enzyme inhibitor treated samples had clearly higher pH and ORP than control sample. Said biocide and/or enzyme inhibitor treatments also decrease the amount of bacteria belonging to the family Thermicanaceae or genus Thermicanus: The control sample contained 3.2*10^7 Thermicanus cells/ml, and the treated samples>90% less, 1.2-2.2*10^6 cells/ml. Thus, in the treated samples both the physical conditions were better and the amount of Thermicanus was lower than in the control sample."}}, "data": [{"smiles": "NCl", "note": "[Monochloramine, monochloramine]", "values": [{"measurement": "Thermicanus, white water, cells/ml", "setting": "[1]; cloudy white water, 3 weeks after start of MCA trial, before trial 2.7*10^8 (7 months) and 2.1*10^8 (1 day)", "result": "7.5*10^5 cells/ml"}, {"measurement": "decrease of Thermicanus densities", "setting": "[1]; stock storage and white water, 3 weeks after start of MCA trial versus before trial", "result": "≥ 99", "unit": "%"}, {"measurement": "Thermicanus, stock storage, cells/ml", "setting": "[1]; stock storage, 3 weeks after start of MCA trial, before trial 5.8*10^8 (7 months) and 3.9*10^8 (1 day)", "result": "3.8*10^6 cells/ml"}, {"measurement": "Thermicanus, cells/ml", "setting": "[2]", "result": "1.2*10^6 cells/ml"}]}, {"smiles": "O=COO", "note": "[Performic acid]", "values": [{"measurement": "Thermicanus, cells/ml", "setting": "[2]", "result": "2.0*10^6 cells/ml"}]}]}
